Data: PMC7565984, “A Phosphorylation-Induced Switch in the Nuclear Localization Sequence of the Intrinsically Disordered NUPR1 Hampers Binding to Importin” (Biomolecules, 2020)
pKd: −log10 of the molar value. Where a SMILES comes first, the peptide text is derived from it.

Columns and labels:
[1] = target: T1, ΔImpα3 (importin α3 without the IBB domain, residues 64-521) (Homo sapiens, UniProt O00629); assay: ITC binding of NLS-NUPR1 peptides / NUPR1 to ΔImpα3; conditions: for ΔH (binding enthalpy), ΔImpα3: absolute error 0.5 kcal/mol; for −TΔS (entropic contribution), ΔImpα3: calculated from Kd and ΔH, absolute error 0.7 kcal/mol
T1 construct: The His-tagged ΔImpα3 (residues 64-521) was obtained from BL21 (DE3) cells as described; His-tag; made in house; host or cells: Escherichia coli BL21 (DE3)
T1 sequence (O00629 64-521): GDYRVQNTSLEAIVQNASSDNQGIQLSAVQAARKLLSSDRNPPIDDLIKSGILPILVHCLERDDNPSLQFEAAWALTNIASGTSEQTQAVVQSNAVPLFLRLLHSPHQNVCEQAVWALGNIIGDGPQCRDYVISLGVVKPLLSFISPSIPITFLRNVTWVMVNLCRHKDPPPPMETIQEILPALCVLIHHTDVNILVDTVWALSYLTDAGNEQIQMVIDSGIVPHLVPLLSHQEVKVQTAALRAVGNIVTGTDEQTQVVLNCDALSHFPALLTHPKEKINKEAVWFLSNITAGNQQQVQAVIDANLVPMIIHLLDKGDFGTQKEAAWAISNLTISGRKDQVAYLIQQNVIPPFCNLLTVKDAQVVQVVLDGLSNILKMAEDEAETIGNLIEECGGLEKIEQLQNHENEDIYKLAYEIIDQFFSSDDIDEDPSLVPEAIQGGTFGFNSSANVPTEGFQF
Description: (§1) The experimental set-up and data processing of ITC experiments has been described previously. Calorimetric titrations, performed in an Auto-iTC200 calorimeter (MicroCal, Malvern-Panalytical, Malvern, UK) consisted of series of 19 2-μL injections, with 150 s time spacing and a 750-rpm stirring speed. Impα3 or ΔImpα3 (at 10–20 μM) was loaded into the calorimetric cell and NLS-NUPR1 peptides in the syringe (150–300 μM); all solutions were prepared in buffer Tris 50 mM, pH 8. […] The binding affinity (association constant) and the binding enthalpy were estimated through a least-squares nonlinear regression data analysis, from which the Gibbs energy and the entropic contribution to the binding were calculated using well-known thermodynamic relationships. Since the binding stoichiometry is constrained by the model, the parameter n provides a fraction of the active or binding competent protein. Experiments for each peptide and importin species were performed, at least, in duplicates.

[2] = Translational diffusion by NMR DOSY (hydrodynamic properties); format: physicochemical; conditions: for D, translational diffusion coefficient: 283 K, pH 7.2, 50-mM deuterated Tris, 100% D2O, peptide 120 μM; for Rh, hydrodynamic radius from D: from the translational diffusion coefficient of dioxane (Rh = 2.12 Å) added to each sample
Description: Concentrations of peptides in all DOSY experiments were 120 μM, and 128 scans, where the gradient strength was varied, were acquired for each curve. Translational self-diffusion measurements were performed with the pulsed gradient spin-echo sequence in the presence of 100% D2O. Experimental details have been described elsewhere. Briefly, the gradient strength was varied in sixteen linear steps between 2% and 95% of the total power of the gradient coil. The gradient strength was previously calibrated by using the value of the translational diffusion coefficient, D, for the residual proton water line in a sample containing 100% D2O in a 5-mm tube [34]. In our experiments for each peptide, the duration of the gradient was 2.25 ms, the time between the two pulse gradients in the pulse sequence was set to 200 ms, and the recovery delay between the bipolar gradients was set to 100 μs. The methyl groups with signals between 1.0 and 0.80 ppm were used for integration. Fitting of the exponential curves obtained from experimental data was carried out with KaleidaGraph (Synergy Software, Version 3.5), as described. A final concentration of 1% of dioxane, which was assumed to have a hydrodynamic radius Rh = 2.12 Å [34], was added to the solutions of each of the peptides to have a comparison for estimating their sizes.

[3] = target: T2, human importin α3 (Impα3) (Homo sapiens, UniProt O00629); assay: ITC binding of NLS-NUPR1 peptides / NUPR1 to Impα3; conditions: for ΔH (binding enthalpy), Impα3 / −TΔS (entropic contribution), Impα3 / pKd: Tris 50 mM pH 8; for ΔH (binding enthalpy), Impα3: absolute error 0.5 kcal/mol; for −TΔS (entropic contribution), Impα3: calculated from Kd and ΔH, absolute error 0.7 kcal/mol; for pKd: importin 10–20 μM in cell, peptide 150–300 μM in syringe, 1:1 model, at least duplicates, relative error 30%, read-out: Kd (dissociation constant), Impα3
T2 construct: although the IBB region maintains its independence within the whole Impα3 in terms of conformation; His-tag (N); made in house; host or cells: Escherichia coli BL21 (DE3)
T2 sequence (O00629 1-521): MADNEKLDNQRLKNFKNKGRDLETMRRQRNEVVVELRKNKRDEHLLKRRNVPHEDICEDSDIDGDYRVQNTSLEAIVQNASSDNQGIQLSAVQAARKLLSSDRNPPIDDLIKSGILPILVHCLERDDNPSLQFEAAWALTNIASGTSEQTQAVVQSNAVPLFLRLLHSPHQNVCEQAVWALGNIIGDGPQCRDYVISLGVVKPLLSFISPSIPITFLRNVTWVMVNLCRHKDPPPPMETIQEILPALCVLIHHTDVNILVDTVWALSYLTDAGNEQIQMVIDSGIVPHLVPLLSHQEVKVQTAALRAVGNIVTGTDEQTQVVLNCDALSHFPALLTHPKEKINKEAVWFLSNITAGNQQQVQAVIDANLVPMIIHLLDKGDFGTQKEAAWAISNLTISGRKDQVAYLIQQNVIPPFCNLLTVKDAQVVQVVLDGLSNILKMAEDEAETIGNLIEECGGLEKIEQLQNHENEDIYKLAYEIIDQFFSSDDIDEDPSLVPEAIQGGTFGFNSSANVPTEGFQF
Description: as §1

[4] = ITC, 298 K, absolute error 0.2, value in parenthesis = fixed in the fit due to low affinity

Row | SMILES | ΔH (binding enthalpy), ΔImpα3 ([1]; ITC, 298 K, Tris 50 mM pH 8) | −TΔS (entropic contribution), ΔImpα3 ([1]; ITC, 298 K, Tris 50 mM pH 8) | pKd ([1]; ITC, 298 K, Tris 50 mM pH 8, importin 10–20 μM in cell, peptide 150–300 μM in syringe, 1:1 model, at least duplicates, relative error 30%, read-out: Kd (dissociation constant), ΔImpα3) | D, translational diffusion coefficient [2] | Rh, hydrodynamic radius from D [2] | ΔH (binding enthalpy), Impα3 ([3]; ITC, 298 K) | −TΔS (entropic contribution), Impα3 ([3]; ITC, 298 K) | pKd ([3]; ITC, 298 K) | n (stoichiometry; fraction of binding-competent protein), ΔImpα3 [1, 4] | n (stoichiometry; fraction of binding-competent protein), Impα3 [3, 4] | Decrease of the affinity for Impα3 relative to wt peptide ([3]; from ITC Kd values) | Experimental binding free energy, ΔImpα3 ([1]; from ITC, Table 2, 298 K) | Experimental binding free energy, Impα3 ([3]; from ITC, Table 2, 298 K)
1 | CC(=O)N[C@@H](Cc1ccc(O)cc1)C(=O)N[C@H](C(=O)N[C@@H](CC(N)=O)C(=O)N[C@@H](CCCNC(=N)N)C(=O)N1CCC[C@H]1C(=O)N[C@@H](CO)C(=O)N1CCC[C@H]1C(=O)NCC(=O)NCC(=O)N[C@@H](Cc1c[nH]cn1)C(=O)N[C@@H](CCC(=O)O)C(=O)N[C@@H](CCCNC(=N)N)C(=O)N[C@@H](CCCCN)C(=O)N[C@@H](CC(C)C)C(=O)N[C@H](C(=O)N[C@@H](CCC(=O)O)C(=O)N[C@@H](C)C(=O)N[C@@H](CC(C)C)C(=O)N[C@@H](CCC(N)=O)C(=O)N[C@@H](CC(N)=O)C(=O)N[C@@H](CO)C(=O)N[C@@H](CCC(=O)O)C(N)=O)C(C)C)[C@@H](C)O [T68EK69A] (Ac-YTNRPSPGGHERKLVEALQNSE-NH2) | -21.2 kcal/mol | 14.7 kcal/mol | 4.77 | 1.87 ± 0.08 cm^2 s^−1 × 10^6 | 11 ± 1 Å | -7.5 kcal/mol | 1.0 kcal/mol | 4.77 | – | – | – | – | –
2 | CC(=O)N[C@@H](Cc1ccc(O)cc1)C(=O)N[C@H](C(=O)N[C@@H](CC(N)=O)C(=O)N[C@@H](CCCNC(=N)N)C(=O)N1CCC[C@H]1C(=O)N[C@@H](CO)C(=O)N1CCC[C@H]1C(=O)NCC(=O)NCC(=O)N[C@@H](Cc1c[nH]cn1)C(=O)N[C@@H](CCC(=O)O)C(=O)N[C@@H](CCCNC(=N)N)C(=O)N[C@@H](C)C(=O)N[C@@H](CC(C)C)C(=O)N[C@H](C(=O)N[C@@H](CCC(=O)O)C(=O)N[C@@H](CCCCN)C(=O)N[C@@H](CC(C)C)C(=O)N[C@@H](CCC(N)=O)C(=O)N[C@@H](CC(N)=O)C(=O)N[C@@H](CO)C(=O)N[C@@H](CCC(=O)O)C(N)=O)C(C)C)[C@@H](C)O [K65AT68E] (Ac-YTNRPSPGGHERALVEKLQNSE-NH2) | -17.9 kcal/mol | 11.3 kcal/mol | – | 1.76 ± 0.06 cm^2 s^−1 × 10^6 | 12 ± 1 Å | -7.8 kcal/mol | 1.4 kcal/mol | – | – | – | – | – | –
3 | CC(=O)N[C@@H](Cc1ccc(O)cc1)C(=O)N[C@H](C(=O)N[C@@H](CC(N)=O)C(=O)N[C@@H](CCCNC(=N)N)C(=O)N1CCC[C@H]1C(=O)N[C@@H](CO)C(=O)N1CCC[C@H]1C(=O)NCC(=O)NCC(=O)N[C@@H](Cc1c[nH]cn1)C(=O)N[C@@H](CCC(=O)O)C(=O)N[C@@H](CCCNC(=N)N)C(=O)N[C@@H](CCCCN)C(=O)N[C@@H](CC(C)C)C(=O)N[C@H](C(=O)N[C@H](C(=O)N[C@@H](C)C(=O)N[C@@H](CC(C)C)C(=O)N[C@@H](CCC(N)=O)C(=O)N[C@@H](CC(N)=O)C(=O)N[C@@H](CO)C(=O)N[C@@H](CCC(=O)O)C(N)=O)[C@@H](C)O)C(C)C)[C@@H](C)O [K69A] (Ac-YTNRPSPGGHERKLVTALQNSE-NH2) | -21.3 kcal/mol | 14.3 kcal/mol | – | 1.79 ± 0.06 cm^2 s^−1 × 10^6 | 12 ± 2 Å | -10.8 kcal/mol | 4.0 kcal/mol | – | 1.4 | 1.3 | six-fold | – | –
4 | CC(=O)N[C@@H](Cc1ccc(O)cc1)C(=O)N[C@H](C(=O)N[C@@H](CC(N)=O)C(=O)N[C@@H](CCCNC(=N)N)C(=O)N1CCC[C@H]1C(=O)N[C@@H](CO)C(=O)N1CCC[C@H]1C(=O)NCC(=O)NCC(=O)N[C@@H](Cc1c[nH]cn1)C(=O)N[C@@H](CCC(=O)O)C(=O)N[C@@H](CCCNC(=N)N)C(=O)N[C@@H](CCCCN)C(=O)N[C@@H](CC(C)C)C(=O)N[C@H](C(=O)N[C@@H](CCC(=O)O)C(=O)N[C@@H](CCCCN)C(=O)N[C@@H](CC(C)C)C(=O)N[C@@H](CCC(N)=O)C(=O)N[C@@H](CC(N)=O)C(=O)N[C@@H](CO)C(=O)N[C@@H](CCC(=O)O)C(N)=O)C(C)C)[C@@H](C)O [T68E] (Ac-YTNRPSPGGHERKLVEKLQNSE-NH2) | -17.5 kcal/mol | 10.8 kcal/mol | – | 2.17 ± 0.06 cm^2 s^−1 × 10^6 | 10 ± 1 Å | -11.1 kcal/mol | 4.7 kcal/mol | – | – | – | – | – | –
5 | CC(=O)N[C@@H](Cc1ccc(O)cc1)C(=O)N[C@H](C(=O)N[C@@H](CC(N)=O)C(=O)N[C@@H](CCCNC(=N)N)C(=O)N1CCC[C@H]1C(=O)N[C@@H](CO)C(=O)N1CCC[C@H]1C(=O)NCC(=O)NCC(=O)N[C@@H](Cc1c[nH]cn1)C(=O)N[C@@H](CCC(=O)O)C(=O)N[C@@H](CCCNC(=N)N)C(=O)N[C@@H](CCCCN)C(=O)N[C@@H](CC(C)C)C(=O)N[C@H](C(=O)N[C@H](C(=O)N[C@@H](CCCCN)C(=O)N[C@@H](CC(C)C)C(=O)N[C@@H](CCC(N)=O)C(=O)N[C@@H](CC(N)=O)C(=O)N[C@@H](CO)C(=O)N[C@@H](CCC(=O)O)C(N)=O)[C@@H](C)O)C(C)C)[C@@H](C)O [wt] (Ac-YTNRPSPGGHERKLVTKLQNSE-NH2) | -3.7 kcal/mol | -4.5 kcal/mol | – | 1.85 ± 0.04 cm^2 s^−1 × 10^6 | 11 ± 1 Å | 0.8 kcal/mol | -8.7 kcal/mol | – | – | – | – | -8.22 kcal/mol | -7.87 kcal/mol
6 | CC(=O)N[C@@H](Cc1ccc(O)cc1)C(=O)N[C@H](C(=O)N[C@@H](CC(N)=O)C(=O)N[C@@H](CCCNC(=N)N)C(=O)N1CCC[C@H]1C(=O)N[C@@H](CO)C(=O)N1CCC[C@H]1C(=O)NCC(=O)NCC(=O)N[C@@H](Cc1c[nH]cn1)C(=O)N[C@@H](CCC(=O)O)C(=O)N[C@@H](CCCNC(=N)N)C(=O)N[C@@H](C)C(=O)N[C@@H](CC(C)C)C(=O)N[C@H](C(=O)N[C@@H](CCC(=O)O)C(=O)N[C@@H](C)C(=O)N[C@@H](CC(C)C)C(=O)N[C@@H](CCC(N)=O)C(=O)N[C@@H](CC(N)=O)C(=O)N[C@@H](CO)C(=O)N[C@@H](CCC(=O)O)C(N)=O)C(C)C)[C@@H](C)O [K65AT68EK69A] (Ac-YTNRPSPGGHERALVEALQNSE-NH2) | -28.5 kcal/mol | 22.2 kcal/mol | – | 2.4 ± 0.2 cm^2 s^−1 × 10^6 | 9 ± 2 Å | -16.3 kcal/mol | – | 4.57 | – | – | – | – | –
